Target: T1, human full-length recombinant PKC βII (Homo sapiens, UniProt P05771)
T1 construct: Active human full-length recombinant PKC βII; purchased Invitrogen GmbH, Darmstadt, Germany
Test: Determination of PKC βII inhibition (Caliper mobility-shift kinase assay, Fluorescein-RFARKGSLRQKNV peptide substrate)
Type: biochemical
Settings: example compounds at a final concentration of 1.14 μM (±0.15 μM)
Outline: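 Full-length PKC βII (30 ng/ml in pre-dilution) with PS/DAG/Ca2+ activators, pH 7.4; fluorescein peptide and ATP at 3 μM and 120 μM before mixing. Reaction ran 60 min at 32 °C, was EDTA-stopped, and was read by mobility shift. % inhibition came from product/(substrate+product) peak heights, tested at 1.14 μM final.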

T1 sequence (P05771 1-673 isoform P05771-2): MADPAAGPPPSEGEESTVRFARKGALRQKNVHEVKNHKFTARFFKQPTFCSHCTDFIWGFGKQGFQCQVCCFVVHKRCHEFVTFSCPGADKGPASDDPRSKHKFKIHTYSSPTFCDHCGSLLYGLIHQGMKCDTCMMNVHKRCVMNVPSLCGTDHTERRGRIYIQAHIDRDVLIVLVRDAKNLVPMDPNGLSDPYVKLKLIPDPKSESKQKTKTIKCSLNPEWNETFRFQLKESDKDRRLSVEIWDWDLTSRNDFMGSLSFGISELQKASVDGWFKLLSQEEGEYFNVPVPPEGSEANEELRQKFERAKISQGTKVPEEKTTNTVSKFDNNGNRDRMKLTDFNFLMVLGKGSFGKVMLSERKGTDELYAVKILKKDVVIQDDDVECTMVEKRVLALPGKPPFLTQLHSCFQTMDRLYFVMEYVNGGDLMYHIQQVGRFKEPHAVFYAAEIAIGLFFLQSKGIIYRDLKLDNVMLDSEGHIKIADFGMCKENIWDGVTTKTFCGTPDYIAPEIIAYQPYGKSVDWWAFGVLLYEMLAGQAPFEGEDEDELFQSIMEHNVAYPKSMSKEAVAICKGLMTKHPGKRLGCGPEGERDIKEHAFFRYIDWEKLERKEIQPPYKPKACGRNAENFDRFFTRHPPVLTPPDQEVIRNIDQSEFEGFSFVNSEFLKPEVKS

Row | SMILES | inhibition at 1.14 µM [%] | % Inhibition [%]
1 | Cc1n[nH]c2nc(-c3ccc(O)c(F)c3)cc(C(=O)N3CCC4(CC3)CNCCO4)c12 [Example 342, [6-(3-Fluoro-4-hydroxy-phenyl)-3-methyl-1H-pyrazolo[3,4-b]pyridin-4-yl]-(1-oxa-4,9-diaza-spiro[5.5]undec-9-yl)-methanone] | 60 | 
2 | CCCC1(NC(=O)c2cc(-c3ccc(O)cc3)nc3[nH]nc(C)c23)CCCNC1 (stereo not shown) [Example 124, 6-(4-Hydroxy-phenyl)-3-methyl-1H-pyrazolo[3,4-b]pyridine-4-carboxylic acid (3-propyl-piperidin-3-yl)-amide] | 78 | 
3 | CCc1n[nH]c2nc(-c3ccc(O)c(F)c3)cc(C(=O)N3CCNCC3)c12 [Example 2, [3-Ethyl-6-(3-fluoro-4-hydroxy-phenyl)-1H-pyrazolo[3,4-b]pyridin-4-yl]-piperazin-1-yl-methanone] | 69 | 
4 | Cc1n[nH]c2nc(-c3ccc(O)cc3)cc(C(=O)N3CCN(C(=O)N4CCCC4)CC3)c12 [Example 379, {4-[6-(4-Hydroxy-phenyl)-3-methyl-1H-pyrazolo[3,4-b]pyridine-4-carbonyl]-piperazin-1-yl}-pyrrolidin-1-yl-methanone] | 86 | 
5 | Cc1n[nH]c2nc(-c3ccc(O)cc3)cc(C(=O)N3CCNC(c4ccccc4)C3)c12 (single isomer, unassigned) [Example 456, [6-(4-Hydroxy-phenyl)-3-methyl-1H-pyrazolo[3,4-b]pyridin-4-yl]-(3-phenyl-piperazin-1-yl)-methanone] |  | 88
6 | Cc1n[nH]c2nc(-c3ccc(O)cc3F)cc(C(=O)N3C[C@H]4CNC[C@H]4C3)c12 [Example 419, [6-(2-Fluoro-4-hydroxy-phenyl)-3-methyl-1H-pyrazolo[3,4-b]pyridin-4-yl]-(3aR,6aS)-hexahydro-pyrrolo[3,4-c]pyrrol-2-yl-methanone] | 79 | 
7 | Cc1n[nH]c2nc(-c3ccc(O)cc3)cc(C(=O)N3CCC[C@@H](CN)C3)c12 [Example 110, ((S)-3-Aminomethyl-piperidin-1-yl)-[6-(4-hydroxy-phenyl)-3-methyl-1H-pyrazolo[3,4-b]pyridin-4-yl]-methanone] | 65 | 
8 | CCCC1CN(C(=O)c2cc(-c3ccc(O)cc3F)nc3[nH]nc(C)c23)C(CCC)CN1 (stereo not shown) [Example 441, (2,5-Dipropyl-piperazin-1-yl)-[6-(2-fluoro-4-hydroxy-phenyl)-3-methyl-1H-pyrazolo[3,4-b]pyridin-4-yl]-methanone] | 96 | 
9 | Cc1n[nH]c2nc(-c3ccc(O)c(F)c3)cc(C(=O)NC3CN4CCC3CC4)c12 (stereo in doubt) [Example 361, (R)-6-(3-Fluoro-4-hydroxy-phenyl)-3-methyl-1H-pyrazolo[3,4-b]pyridine-4-carboxylic acid (1-aza-bicyclo[2.2.2]oct-3-yl)-amide] | 50 | 
10 | CCc1n[nH]c2nc(-c3ccc(O)cc3)cc(C(=O)NC3CC4(CCNCC4)c4ccccc43)c12 (stereo not shown) [Example 181, 3-Ethyl-6-(4-hydroxy-phenyl)-1H-pyrazolo[3,4-b]pyridine-4-carboxylic acid (2,3-dihydrospiro[1H-indene-1,4′-piperidin]-3-yl)-amide] | 77 | 
11 | Cc1n[nH]c2nc(-c3ccc(O)cc3)cc(C(=O)NC3CC4(CCNCC4)c4ccccc43)c12 (stereo not shown) [Example 373, 6-(4-Hydroxy-phenyl)-3-methyl-1H-pyrazolo[3,4-b]pyridine-4-carboxylic acid (2,3-dihydro-spiro[1H-indene-1,4′-piperidin]-3-yl)-amide] | 96 | 
12 | Cc1n[nH]c2nc(-c3ccc(O)c(F)c3)cc(C(=O)N3CCNC(C)C3)c12 (stereo not shown) [Example 303, [6-(3-Fluoro-4-hydroxy-phenyl)-3-methyl-1H-pyrazolo[3,4-b]pyridin-4-yl]-(3-methyl-piperazin-1-yl)-methanone] | 93 | 
13 | Cc1n[nH]c2nc(-c3ccc(O)c(F)c3)cc(C(=O)N3CCN[C@@H](C(C)C)C3)c12 [Example 326, [6-(3-Fluoro-4-hydroxy-phenyl)-3-methyl-1H-pyrazolo[3,4-b]pyridin-4-yl]-((S)-3-isopropyl-piperazin-1-yl)-methanone] | 83 | 
14 | Cc1n[nH]c2nc(-c3ccc(O)c(F)c3)cc(C(=O)N3CCOC4(CCNCC4)C3)c12 [Example 344, [6-(3-Fluoro-4-hydroxy-phenyl)-3-methyl-1H-pyrazolo[3,4-b]pyridin-4-yl]-(1-oxa-4,9-diaza-spiro[5.5]undec-4-yl)-methanone] | 64 | 
15 | Cc1n[nH]c2nc(-c3ccc(O)cc3)cc(C(=O)NC3CCC(N(C)C)CC3)c12 (stereo not shown) [Example 396, 6-(4-Hydroxy-phenyl)-3-methyl-1H-pyrazolo[3,4-b]pyridine-4-carboxylic acid (4-dimethylamino-cyclohexyl)-amide] | 39 | 
16 | Cc1n[nH]c2nc(-c3ccc(O)cc3)cc(C(=O)N3CC4(CCNCC4)C3)c12 [Example 234, (2,7-Diaza-spiro[3.5]non-2-yl)-[6-(4-hydroxy-phenyl)-3-methyl-1H-pyrazolo[3,4-b]pyridin-4-yl]-methanone] | 94 | 

Row | SMILES | inhibition at 1.14 µM [%] | % Inhibition [%]
17 | Cc1n[nH]c2nc(-c3ccc(O)cc3)cc(C(=O)N3CCNCC3c3cccc(F)c3F)c12 (stereo not shown) [Example 85, [2-(2,3-Difluoro-phenyl)-piperazin-1-yl]-[6-(4-hydroxy-phenyl)-3-methyl-1H-pyrazolo[3,4-b]pyridin-4-yl]-methanone] | 98 | 
18 | COC(=O)[C@H]1CN(C(=O)c2cc(-c3ccc(O)c(F)c3)nc3[nH]nc(C)c23)CCN1 [Example 297, (R)-4-[6-(3-Fluoro-4-hydroxy-phenyl)-3-methyl-1H-pyrazolo[3,4-b]pyridine-4-carbonyl]-piperazine-2-carboxylic acid methyl ester] | 34 | 
19 | Cc1n[nH]c2nc(-c3ccc(O)cc3)cc(C(=O)NCCC3CCCN3C)c12 (stereo not shown) [Example 218, 6-(4-Hydroxy-phenyl)-3-methyl-1H-pyrazolo[3,4-b]pyridine-4-carboxylic acid [2-(1-methyl-pyrrolidin-2-yl)-ethyl]-amide] | 85 | 
20 | Cc1n[nH]c2nc(-c3ccc(O)cc3)cc(C(=O)N(CCc3ccccc3)[C@@H]3CCCNC3)c12 [Example 22, 6-(4-Hydroxy-phenyl)-3-methyl-1H-pyrazolo[3,4-b]pyridine-4-carboxylic acid phenethyl-(R)-piperidin-3-yl-amide] | 63 | 
21 | Cc1n[nH]c2nc(-c3ccc(O)cc3F)cc(C(=O)NCCC(C)(C)N)c12 [Example 67, 6-(2-Fluoro-4-hydroxy-phenyl)-3-methyl-1H-pyrazolo[3,4-b]pyridine-4-carboxylic acid (3-amino-3-methyl-butyl)-amide] | 86 | 
22 | Cc1n[nH]c2nc(-c3ccc(O)cc3)cc(C(=O)N3CC[C@H](N)C3)c12 [Example 246, ((S)-3-Amino-pyrrolidin-1-yl)-[6-(4-hydroxy-phenyl)-3-methyl-1H-pyrazolo[3,4-b]pyridin-4-yl]-methanone] | 88 | 
23 | Cc1n[nH]c2nc(-c3ccc(O)cc3)cc(C(=O)N3CCC(Nc4ccccc4)C3)c12 (stereo not shown) [Example 385, [6-(4-Hydroxy-phenyl)-3-methyl-1H-pyrazolo[3,4-b]pyridin-4-yl]-(3-phenylamino-pyrrolidin-1-yl)-methanone] | 24 | 
24 | Cc1n[nH]c2nc(-c3ccc(O)c(F)c3)cc(C(=O)N3CCC4(CCNC4)CC3)c12 [Example 341, (2,8-Diaza-spiro[4.5]dec-8-yl)-[6-(3-fluoro-4-hydroxy-phenyl)-3-methyl-1H-pyrazolo[3,4-b]pyridin-4-yl]-methanone] | 53 | 
25 | Cc1n[nH]c2nc(-c3ccc(O)cc3F)cc(C(=O)N3CCC[C@@H](CN)C3)c12 [Example 59, ((S)-3-Aminomethyl-piperidin-1-yl)-[6-(2-fluoro-4-hydroxy-phenyl)-3-methyl-1H-pyrazolo[3,4-b]pyridin-4-yl]-methanone] | 80 | 
26 | Cc1n[nH]c2nc(-c3ccc(O)cc3)cc(C(=O)N3CCN(C)CC3c3ccccc3)c12 (stereo not shown) [Example 372, [6-(4-Hydroxy-phenyl)-3-methyl-1H-pyrazolo[3,4-b]pyridin-4-yl]-(4-methyl-2-phenyl-piperazin-1-yl)-methanone] | 66 | 
27 | Cc1n[nH]c2nc(-c3ccc(O)cc3)cc(C(=O)N3CC4CN(Cc5ccccc5)CC4C3)c12 (stereo not shown) [Example 386, (5-Benzyl-hexahydro-pyrrolo[3,4-c]pyrrol-2-yl)-[6-(4-hydroxy-phenyl)-3-methyl-1H-pyrazolo[3,4-b]pyridin-4-yl]-methanone] | 51 | 
28 | Cc1n[nH]c2nc(-c3ccc(O)cc3Cl)cc(C(=O)N3CCNCC3)c12 [Example 6, [6-(2-Chloro-4-hydroxy-phenyl)-3-methyl-1H-pyrazolo[3,4-b]pyridin-4-yl]-piperazin-1-yl-methanone] | 97 | 
29 | Cc1n[nH]c2nc(-c3ccc(O)cc3)cc(C(=O)N3CCC4(CCCNC4)C3)c12 (stereo not shown) [Example 235, (2,7-Diaza-spiro[4.5]dec-2-yl)-[6-(4-hydroxy-phenyl)-3-methyl-1H-pyrazolo[3,4-b]pyridin-4-yl]-methanone] | 89 | 
30 | Cc1n[nH]c2nc(-c3ccc(O)c(F)c3)cc(C(=O)N[C@@H]3[C@H]4CC[C@H](C4)[C@H]3CN)c12 (stereo in doubt) [Example 311, 6-(3-Fluoro-4-hydroxy-phenyl)-3-methyl-1H-pyrazolo[3,4-b]pyridine-4-carboxylic acid (3-aminomethyl-bicyclo[2.2.1]hept-2-yl)-amide] | 74 | 
31 | Cc1n[nH]c2nc(-c3ccc(O)c(F)c3)cc(C(=O)N3CC4CNCC4C3)c12 (stereo not shown) [Example 289, [6-(3-Fluoro-4-hydroxy-phenyl)-3-methyl-1H-pyrazolo[3,4-b]pyridin-4-yl]-(hexahydro-pyrrolo[3,4-c]pyrrol-2-yl)-methanone] | 84 | 
